Test results from article PMC8748916, “Microbial enzymes induce colitis by reactivating triclosan in the mouse gastrointestinal tract” (Nature Communications, 2022).
“And” between values parts separate entries of the source, which are not always exact repeats. Equal values may be shown once.

What was measured:
[1] = LC-MS/MS of TCS and its metabolites in human stool and urine after use of TCS-containing personal care products; format: in vivo; conditions: for TCS metabolites in human stool / TCS metabolites in human urine: Treatment TCS, individual subjects; for average molar concentration ratio: TCS-exposed subjects;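 for Profile in stool (%): molar share of summed TCS plus TCS-G plus TCS-sulfate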;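 for Profile in urine (%): molar share of summed TCS plus TCS-G plus TCS-sulfate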;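 for average molar concentration ratio: molar share of summed TCS plus TCS-G plus TCS-sulfate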
Excerpt: To broaden our understanding of TCS metabolic profiles in the gut, we next analyzed TCS metabolism in human subjects. We utilized urine and stool samples from a previous study in which the recruited human subjects were first subjected to a washout period (no usage of TCS-containing products), then were randomly assigned to two groups that used personal care products like toothpaste with or without TCS for up to four months (see the scheme of the experiment in Fig. 1c)[15]. Previous data had established that humans are primarily exposed to TCS via toothpaste that provides a direct oral route to the gastrointestinal tract[16],[17].

[2] = LC-MS/MS profiling of TCS metabolism in mice (TCS via diet for 4 weeks); conditions: for concentration of TCS, TCS-G, TCS-Sulfate: individual mice
[3] = test system: enzymes extracted from human fecal samples; experiment: In fimo assay (TCS-G turnover rate by human fecal extracts); format: biochemical; conditions: Fig. 3c, replicates 1-3
Experimental: Fecal extracts were prepared and proteomic analysis was performed exactly as previously described. In total, 10 g of frozen human fecal sample was thawed and added to 25 mL extraction buffer (25 mM HEPES, 25 mM NaCl pH 6.5 with Roche Complete protease inhibitor tablet) and 0.5 g autoclaved garnet beads. The mixture was vortexed until homogenous and centrifuged at low speed (300 × g for 5 min at 4 °C). The supernatant was decanted. In all, 25 mL buffer was added to the pellet and the vortex and centrifugation steps repeated. The supernatants from these steps were then combined and centrifuged at low speed for two more cycles. The resultant supernatant was sonicated twice using 1 s pulses for 1.5 min and the lysate was centrifuged at 17,000 × g for 20 min in a Beckman Coulter J2-HC centrifuge. The decanted lysate was then washed with several exchanges of extraction buffer to remove metabolites and small molecules. Total protein concentration was quantitated using a Bradford assay. The fecal lysate was diluted to 1 mg/mL concentration and snap-frozen in small aliquots.
Reaction mixtures contained 5 µL fecal extract (0.1 mg/mL final), 30 µL TCS-G (200 µM final), and 15 µL assay buffer (25 mM HEPES, 25 mM NaCl, pH 6.5). Reactions were quenched at five time points with 50 µL 25% trichloroacetic acid. Samples were centrifuged 20 min at 16,000 × g in a tabletop centrifuge, and the supernatant was analyzed via the same HPLC method described for the catalytic efficiency assay. Reaction rates were determined by fitting progress curves using linear regression and are expressed as initial turnover rates (µM/s). Controls contained fecal extract that had been heat-killed at 95 °C for 5 min. Reported rates are the average of three biological replicates ±SEM.

[4] = treatment time 0 months (after washout)

SMILES: O=S(=O)(O)Oc1cc(Cl)ccc1Oc1ccc(Cl)cc1Cl [TCS-sulfate, triclosan-sulfate]
- Profile in urine (%) ([1]; TCS-exposed human subjects, n=7 urine samples): 0.04%
- Profile in stool (%) ([1]; TCS-exposed human subjects, n=23 stool samples): 0.0365%
- TCS metabolites in human stool [1, 4]: 0.311 pmol/ g stool and < LOD
- TCS metabolites in human urine [1, 4]: 0.071 nM urine and < LOD (3×)
- TCS metabolites in human stool ([1]; treatment time 1 month): 1.344 pmol/ g stool and < LOD (3×) and 0.342 pmol/ g stool and 0.381 pmol/ g stool
- TCS metabolites in human urine ([1]; treatment time 1 month): 0.470 nM urine
- TCS metabolites in human stool ([1]; treatment time 2 months): < LOD (4×) and 0.999 pmol/ g stool
- TCS metabolites in human urine ([1]; treatment time 2 months): 0.522 nM urine
- TCS metabolites in human stool ([1]; treatment time 3 months): 0.987 pmol/ g stool and < LOD (5×)
- TCS metabolites in human urine ([1]; treatment time 3 months): 0.157 nM urine
- TCS metabolites in human stool ([1]; treatment time 4 months): 0.971 pmol/ g stool and < LOD (4×) and 0.236 pmol/ g stool
- TCS metabolites in human urine ([1]; treatment time 4 months): 0.257 nM urine and < LOD and 0.689 nM urine and 0.388 nM urine
- average molar concentration ratio ([1]; human stool): 0.0%
- average molar concentration ratio ([1]; human urine): 0.0%
- concentration of TCS, TCS-G, TCS-Sulfate ([2]; Bile, 80 ppm TCS via diet 4 weeks): 93.62 pmol/mg and 49.05 pmol/mg and 43.31 pmol/mg and 67.29 pmol/mg
- concentration of TCS, TCS-G, TCS-Sulfate ([2]; Cecum (digesta), 80 ppm TCS via diet 4 weeks): 0.12 pmol/mg and 0.13 pmol/mg and 0.09 pmol/mg and 0.35 pmol/mg and 0.29 pmol/mg and 0.53 pmol/mg and 0.56 pmol/mg and 0.38 pmol/mg and 0.61 pmol/mg and 0.54 pmol/mg
- concentration of TCS, TCS-G, TCS-Sulfate ([2]; Cecum digesta, 1 ppm TCS in diet 4 weeks): 0 pmol/mg
- concentration of TCS, TCS-G, TCS-Sulfate ([2]; Cecum digesta, 10 ppm TCS in diet 4 weeks): 0.02 pmol/mg and 0 pmol/mg and 0.01 pmol/mg
- concentration of TCS, TCS-G, TCS-Sulfate ([2]; Cecum digesta, 80 ppm TCS in diet 4 weeks): 0.03 pmol/mg and 0.05 pmol/mg and 0.08 pmol/mg and 0.06 pmol/mg and 0.13 pmol/mg
- concentration of TCS, TCS-G, TCS-Sulfate ([2]; Colon (digesta), 80 ppm TCS via diet 4 weeks): 1.16 pmol/mg and 1.00 pmol/mg and 1.32 pmol/mg and 1.31 pmol/mg and 2.15 pmol/mg and 0.67 pmol/mg and 0.75 pmol/mg and 2.57 pmol/mg and 1.48 pmol/mg and 2.39 pmol/mg
- concentration of TCS, TCS-G, TCS-Sulfate ([2]; Colon digesta, 1 ppm TCS in diet 4 weeks): 0 pmol/mg
- concentration of TCS, TCS-G, TCS-Sulfate ([2]; Colon digesta, 10 ppm TCS in diet 4 weeks): 0.2 pmol/mg and 0 pmol/mg and 0.03 pmol/mg and 0.01 pmol/mg and 0.05 pmol/mg and 0.02 pmol/mg
- concentration of TCS, TCS-G, TCS-Sulfate ([2]; Colon digesta, 80 ppm TCS in diet 4 weeks): 0.3 pmol/mg and 0.21 pmol/mg and 0.1 pmol/mg and 0.13 pmol/mg and 0.22 pmol/mg and 0.09 pmol/mg and 0.81 pmol/mg and 0.37 pmol/mg
- concentration of TCS, TCS-G, TCS-Sulfate ([2]; Feces, 1 ppm TCS in diet 4 weeks): 0.05 pmol/mg
- concentration of TCS, TCS-G, TCS-Sulfate ([2]; Feces, 10 ppm TCS in diet 4 weeks): 0.1 pmol/mg and 0.16 pmol/mg
- concentration of TCS, TCS-G, TCS-Sulfate ([2]; Feces, 80 ppm TCS in diet 4 weeks): 3.27 pmol/mg and 1.08 pmol/mg
- Level in Cecum ([2]; Fig. S3b, Cecum, individual mice No. 1-10 per row): 0.53 and 0.56 and 0.38 and 0.61 and 0.54 and 0.12 and 0.13 and 0.09 and 0.35 and 0.29
- Level in Colon ([2]; Fig. S3b, Colon, individual mice No. 1-10 per row): 0.78 and 1.13 and 3.01 and 1.95 and 2.87 and 1.28 and 1 and 1.68 and 1.44 and 2.3
- Level in SI 1st section ([2]; Fig. S3b, SI 1st section, individual mice No. 1-10 per row): 7.35 and 7.33 and 7.48 and 7.82 and 9.31 and 9.27 and 9.71 and 4.38 and 7.68 and 8.04
- Level in SI 2nd section ([2]; Fig. S3b, SI 2nd section, individual mice No. 1-10 per row): 6.24 and 6.6 and 5.34 and 6.55 and 6.34 and 6.37 and 6.86 and 2.98 and 4.48 and 5.78
- Level in SI 3rd section ([2]; Fig. S3b, SI 3rd section, individual mice No. 1-10 per row): 5.62 and 5.7 and 3.67 and 5.46 and 7.7 and 5.86 and 4.93 and 2.15 and 4.34 and 5.06
- Level in SI 4th section ([2]; Fig. S3b, SI 4th section, individual mice No. 1-10 per row): 7.25 and 6.61 and 6.48 and 10.63 and 8.75 and 6.52 and 6.94 and 2.9 and 7.06
- concentration of TCS, TCS-G, TCS-Sulfate ([2]; Heart, 80 ppm TCS via diet 4 weeks): 10.90 pmol/mg and 8.11 pmol/mg and 9.20 pmol/mg and 10.24 pmol/mg
- concentration of TCS, TCS-G, TCS-Sulfate ([2]; Liver, 80 ppm TCS via diet 4 weeks): 37.26 pmol/mg and 31.81 pmol/mg and 21.91 pmol/mg and 24.89 pmol/mg and 30.95 pmol/mg and 12.68 pmol/mg and 35.36 pmol/mg and 32.58 pmol/mg and 32.38 pmol/mg and 20.28 pmol/mg
- concentration of TCS, TCS-G, TCS-Sulfate ([2]; SI 1st section (digesta), 80 ppm TCS via diet 4 weeks): 7.33 pmol/mg and 7.48 pmol/mg and 7.82 pmol/mg and 9.31 pmol/mg
- concentration of TCS, TCS-G, TCS-Sulfate ([2]; SI 2nd section (digesta), 80 ppm TCS via diet 4 weeks): 6.37 pmol/mg and 6.86 pmol/mg and 2.98 pmol/mg and 4.48 pmol/mg and 5.78 pmol/mg and 6.24 pmol/mg and 6.60 pmol/mg and 5.34 pmol/mg and 6.55 pmol/mg and 6.34 pmol/mg
- concentration of TCS, TCS-G, TCS-Sulfate ([2]; SI 3rd section (digesta), 80 ppm TCS via diet 4 weeks): 5.86 pmol/mg and 4.93 pmol/mg and 2.15 pmol/mg and 4.34 pmol/mg and 5.06 pmol/mg and 5.62 pmol/mg and 5.70 pmol/mg and 3.67 pmol/mg and 5.46 pmol/mg and 7.70 pmol/mg
- concentration of TCS, TCS-G, TCS-Sulfate ([2]; SI 4th section (digesta), 80 ppm TCS via diet 4 weeks): 6.52 pmol/mg and 6.94 pmol/mg and 2.90 pmol/mg and 6.61 pmol/mg and 7.06 pmol/mg and 7.25 pmol/mg and 6.48 pmol/mg and 10.63 pmol/mg and 8.75 pmol/mg
- share of TCS metabolites found ([2]; digesta of the 4th section of the mouse small intestine, 80 ppm TCS via diet 4 weeks): 7.7%
- share of TCS metabolites found ([2]; fecal content, 80 ppm TCS via diet 4 weeks): 0.2%

SMILES: O=C(O)[C@H]1OC(Oc2cc(Cl)ccc2Oc2ccc(Cl)cc2Cl)[C@H](O)[C@@H](O)[C@@H]1O (stereo partly shown) [TCSG]
- TCSG turnover rate ([3]; human fecal extract sample F2): 0.0489 µM/s and 0.0506 µM/s and 0.0488 µM/s
- TCSG turnover rate ([3]; human fecal extract sample F3): 0.0556 µM/s and 0.0559 µM/s and 0.0553 µM/s
- TCSG turnover rate ([3]; human fecal extract sample F4): 0.036 µM/s and 0.0272 µM/s and 0.0271 µM/s
- TCSG turnover rate ([3]; human fecal extract sample M1): 0.063 µM/s and 0.0659 µM/s and 0.0613 µM/s
- TCSG turnover rate ([3]; human fecal extract sample M2): 0.0168 µM/s and 0.0179 µM/s and 0.0157 µM/s
- TCSG turnover rate ([3]; human fecal extract sample M3): 0.0438 µM/s and 0.0439 µM/s and 0.0436 µM/s
